Source: patent US20100247485A1, “FORMULATIONS AND DEVICES FOR […] TO […] MICR[…] ARTHOPODS” (MEVLABS, INC., priority 2007, published 2010)

Test system: Anopheles mosquitoe species
Assay: Lethality of drug to Anopheles mosquitoes
Details: 7 μg/ml (estimated ED 50 of Pyremethamine)

`CCc1nc(N)nc(N)c1-c1ccc(Cl)cc1` [Pyremethamine] was tested, and the “lethality to mosquitoes at the estimated ED50” value was “not lethal”.
